Assay results taken from patent US20070117839A1, “Two cyclic cinnamide compound” (Eisai R&D Management Co., Ltd., priority 2005, published 2007).

system: Aβ 42 Production; experiment: Quantification of Aβ peptide in culture of neurons from rat fetus brain (Aβ ELISA); format: cell-based; conditions: Neuron, 72 h; rat primary neuronal culture (embryonic day 18 Wistar rat cerebral cortex), cultured three days after addition of the compound, Aβx-42 ELISA of the medium; read-out: Activity for reducing Aβ 42 Production IC50
Procedure: Quantification of Aβ Peptide in Culture of Neurons from Rat Fetus Brain
(1) Rat Primary Neuronal Culture
Primary neuronal cultures were prepared from the cerebral cortex of embryonic day 18 Wistar rats (Charles River Japan, Yokohama, Japan). Specifically, the embryos were aseptically removed from pregnant rats under ether anesthesia. The brain was isolated from the embryo and immersed in an ice-cold L-15 medium (Invitrogen Corp. Cat #11415-064, Carlsbad, Calif., USA, or SIGMA L1518, for example). The cerebral cortex was collected from the isolated brain under a stereoscopic microscope. The cerebral cortex fragments collected were enzymatically treated in an enzyme solution containing 0.25% trypsin (Invitrogen Corp. Cat #15050-065, Carlsbad, Calif., USA) and 0.01% DNase (Sigma D5025, St. Louis, Mo., USA) at 37° C. for 30 minutes to disperse the cells. Here, the enzymatic reaction was stopped by adding inactivated horse serum to the solution. The enzymatically treated solution was centrifuged at 1,500 rpm for five minutes to remove the supernatant. 5 to 10 mL of a medium was added to the resulting cell mass. Neurobasal medium (Invitrogen Corp. Cat #21103-049, Carlsbad, Calif., USA) supplemented with 2% B27 supplement (Invitrogen Corp. Cat #17504-044, Carlsbad, Calif., USA), 25 μM 2-mercaptoethanol (2-ME, WAKO Cat #139-06861, Osaka, Japan), 0.5 mM L-glutamine (Invitrogen Corp. Cat #25030-081, Carlsbad, Calif., USA), and Antibiotics-Antimycotics (Invitrogen Corp. Cat #15240-062, Carlsbad, Calif., USA) was used as the medium (Neurobasal/B27/2-ME). However, the above Neurobasal medium not supplemented with 2-ME (Neurobasal/B27) was used for the assay. The cells were redispersed by mild pipetting of the cell mass to which the medium was added. The cell dispersion was filtered through a 40-μm nylon mesh (Cell Strainer, Cat #35-2340, Becton Dickinson Labware, Franklin Lakes, N.J., USA) to remove the remaining cell mass, and thus a neuronal cell suspension was obtained. The neuronal cell suspension was diluted with the medium and then plated in a volume of 100 μl/well at an initial cell density of 5×10^5 cells/cm^2 in a 96-well polystyrene culture plate pre-coated with poly-L or D-lysine (Falcon Cat #35-3075, Becton Dickinson Labware, Franklin Lakes, N.J., USA coated with poly-L-lysine using the method shown below, or BIOCOAT™ cell environments Poly-D-lysine cell ware 96-well plate, Cat #35-6461, Becton Dickinson Labware, Franklin Lakes, N.J., USA). Poly-L-lysine coating was carried out as follows. 100 μg/ml of a poly-L-lysine (SIGMA P2636, St. Louis, Mo., USA) solution was aseptically prepared with a 0.15 M borate buffer (pH 8.5). 100 μl/well of the solution was added to the 96-well polystyrene culture plate and incubated at room temperature for one or more hours or at 4° C. overnight or longer. The coated 96-well polystyrene culture plate was washed with sterile water four or more times, and then dried or rinsed with, for example, sterile PBS or medium, and used for cell plating. The plated cells were cultured in the culture plate at 37° C. in 5% CO2-95% air for one day. Then, the total amount of the medium was replaced with a fresh Neurobasal/B27/2-ME medium, and then the cells were cultured for further three days.
The drug was added to the culture plate on Day 4 of culture as follows. The total amount of the medium was removed from the wells, and 180 μl/well of Neurobasal medium not containing 2-ME and containing 2% B-27 (Neurobasal/B27) was added thereto. A solution of the test compound in dimethyl sulfoxide (hereinafter abbreviated as DMSO) was diluted with Neurobasal/B27 at 10-fold of the final concentration. 20 μl/well of the dilution was added to and sufficiently mixed with the medium. The final DMSO concentration was 1% or less. Only DMSO was added to the control group.
The cells were cultured for three days after addition of the compound, and the total amount of the medium was collected. […]

Question: For `COc1cc(/C=C2\CC[C@@H]3C[C@@](C)(O)C[C@@H](c4ccc(F)cc4)N3C2=O)ccc1-n1cnc(C)c1` [Example 45, (E)-(6S,8R,9aR)-6-(4-fluorophenyl)-8-hydroxy-3-[3-methoxy-4-(4-methyl-1H-imidazol-1-yl)benzylidene]-8-methyloctahydroquinolizin-4-one], which IC50 is on record?
Answer: Its IC50 is 0.16 µM.

Question: With `COc1cc(/C=C2\CC[C@H]3CCC[C@@H](c4cc(F)c(F)c(F)c4)N3C2=O)ccc1-n1cnc(C)c1` [Example 91, (6S,9aR)-6-(3,4,5-trifluorophenyl)-3-{1-[3-methoxy-4-(4-methyl-1H-imidazol-1-yl)phenyl]-(E)-methylidene}octahydroquinolizin-4-one] as the compound, how does the IC50 read?
Answer: The IC50 was 0.033 µM.

Question: Which IC50 does the source give for `COc1cc(/C=C2\C[C@H]3CC[C@@H](c4ccc(F)c(F)c4)N3C2=O)ccc1-n1cnc(C)c1` [Example 54, (E)-(5S,7aR)-5-(3,4-difluorophenyl)-2-[3-methoxy-4-(4-methyl-1H-imidazol-1-yl)benzylidene]hexahydropyrrolidin-3-one] here?
Answer: The IC50 was 0.254 µM.

Question: Which IC50 does the source give for `COc1cc(/C=C2\CC[C@H]3CC[C@@H](c4cc(F)cc(F)c4)N3C2=O)ccc1-n1cnc(C)c1` [Example 64, (E)-(3S,8aS)-3-(3,5-difluorophenyl)-6-[3-methoxy-4-(4-methyl-1H-imidazol-1-yl)benzylidene]hexahydroindolizin-5-one] here?
Answer: Its IC50 is 0.067 µM.

Question: Which IC50 does the source give for `COc1cc(/C=C2\CC[C@H]3CCC[C@@H](c4ccc(F)cc4)N3C2=O)ccc1-n1cnc(C)c1` [Example 8, (E)-(6S,9aR)-6-(4-fluorophenyl)-3-[3-methoxy-4-(4-methyl-1H-imidazol-1-yl)benzylidene]octahydroquinolizin-4-one] here?
Answer: The IC50 was 0.073 µM.

Question: With `COc1cc(/C=C2\CC[C@H]3CC[C@@H](c4ccc(F)c(F)c4)N3C2=O)ccc1-n1cnc(C)c1` [Example 6, (E)-(3S)-(3,4-difluorophenyl)-6-[3-methoxy-4-(4-methyl-1H-imidazol-1-yl)benzylidene]-(9S)-hexahydroindolizin-5-one] as the compound, how does the IC50 read?
Answer: The IC50 was 0.12 µM.

Question: With `COc1cc(/C=C2\CC[C@H]3COC[C@@H](c4ccc(Cl)cc4)N3C2=O)ccc1-n1cnc(C)c1` [Example 96, (4R,9aS)-4-(4-chlorophenyl)-7-{1-[3-methoxy-4-(4-methyl-1H-imidazol-1-yl)phenyl]-(E)-methylidene}hexahydropyrido[2,1-c][1,4]oxazin-6-one] as the compound, how does the IC50 read?
Answer: The IC50 was 0.065 µM.

Question: With `COc1cc(/C=C2\CC[C@H]3CCC[C@@H](c4ccccc4F)N3C2=O)ccc1-n1cnc(C)c1` [Example 43, (E)-(6S,9aR)-6-(2-fluorophenyl)-3-[3-methoxy-4-(4-methyl-1H-imidazol-1-yl)benzylidene]octahydroquinolizin-4-one] as the compound, how does the IC50 read?
Answer: Its IC50 is 0.066 µM.

Question: How did the IC50 turn out when `COc1cc(/C=C2\CC[C@H]3COC[C@@H](c4cc(F)c(F)c(F)c4)N3C2=O)ccc1-n1cnc(C)c1` [Example 83, (E)-(4R,9aS)-7-[3-methoxy-4-(4-methyl-1H-imidazol-1-yl)benzylidene]-4-(3,4,5-trifluorophenyl)hexahydropyrido[2,1-c][1,4]oxazin-6-one] was run?
Answer: Its IC50 is 0.037 µM.

Question: With `COc1cc(/C=C2\CC[C@@H]3CCC[C@@H](c4ccc(F)cc4)N3C2=O)ccc1-n1cnc(C)c1` [Example 19, (E)-(6S,9aS)-6-(4-fluorophenyl)-3-[3-methoxy-4-(4-methyl-1H-imidazol-1-yl)benzylidene]octahydroquinolizin-4-one] as the compound, how does the IC50 read?
Answer: Its IC50 is 0.129 µM.

Question: For `COc1cc(/C=C2\CC[C@@H]3CCC[C@@H](c4cc(F)c(F)c(F)c4)N3C2=O)ccc1-n1cnc(C)c1` [Example 13, (E)-(6S,9aS)-6-(3,4,5-trifluorophenyl)-3-[3-methoxy-4-(4-methyl-1H-imidazol-1-yl)benzylidene]octahydroquinolizin-4-one], which IC50 is on record?
Answer: The IC50 was 0.091 µM.

Question: `COc1cc(/C=C2\CC[C@H]3CN(C)C[C@@H](c4cc(F)c(F)c(F)c4)N3C2=O)ccc1-n1cnc(C)c1` [Example 110, (4R,9aS)-7-{1-[3-methoxy-4-(4-methyl-1H-imidazol-1-yl)phenyl]-(E)-methylidene}-2-methyl-4-(3,4,5-trifluorophenyl)octahydropyrido[1,2-a]pyrazin-6-one] was tested. Which IC50 did it give?
Answer: The IC50 was 0.029 µM.

Question: `COc1cc(/C=C2\CC[C@H]3CC[C@@H](c4ccc(F)c(F)c4F)N3C2=O)ccc1-n1cnc(C)c1` [Example 58, (E)-(3S,8aS)-3-(2,3,4-trifluorophenyl)-6-[3-methoxy-4-(4-methyl-1H-imidazol-1-yl)benzylidene]hexahydroindolizin-5-one] was tested. Which IC50 did it give?
Answer: The IC50 was 0.073 µM.

Question: Which IC50 does the source give for `COc1ccc([C@@H]2CCC[C@@H]3CC/C(=C\c4ccc(-n5cnc(C)c5)c(OC)c4)C(=O)N32)cc1` [Example 30, (E)-(6S,9aR)-3-[3-methoxy-4-(4-methyl-1H-imidazol-1-yl)benzylidene]-6-(4-methoxyphenyl)octahydroquinolizin-4-one] here?
Answer: Its IC50 is 0.109 µM.

Question: For `COc1cc(/C=C2\CC[C@H]3CC[C@@H](c4ccc(Cl)cc4)N3C2=O)ccc1-n1cnc(C)c1` [Example 56, (E)-(3S,8aS)-3-(4-chlorophenyl)-6-[3-methoxy-4-(4-methyl-1H-imidazol-1-yl)benzylidene]hexahydroindolizin-5-one], which IC50 is on record?
Answer: The IC50 was 0.055 µM.

Question: `COc1cc(/C=C2\CC[C@H]3CC[C@@H](c4cc(F)c(F)c(F)c4)N3C2=O)ccc1-n1cnc(C)c1` [Example 3, (E)-(3S)-(3,4,5-trifluorophenyl)-6-[3-methoxy-4-(4-methyl-1H-imidazol-1-yl)benzylidene]-(9S)-hexahydroindolizin-5-one] was tested. Which IC50 did it give?
Answer: The IC50 was 0.063 µM.

Question: For `COc1cc(/C=C2\CC[C@H]3CC[C@@H](c4c(F)cc(F)cc4F)N3C2=O)ccc1-n1cnc(C)c1` [Example 89, (3S,8aS)-6-{1-[3-methoxy-4-(4-methyl-1H-imidazol-1-yl)phenyl]-(E)-methylidene}-3-(2,4,6-trifluorophenyl)hexahydroindolizin-5-one], which IC50 is on record?
Answer: Its IC50 is 0.088 µM.

Question: For `COc1cc(/C=C2\CC[C@H]3CCC[C@@H](c4cccc(F)c4)N3C2=O)ccc1-n1cnc(C)c1` [Example 41, (E)-(6S,9aR)-6-(3-fluorophenyl)-3-[3-methoxy-4-(4-methyl-1H-imidazol-1-yl)benzylidene]octahydroquinolizin-4-one], which IC50 is on record?
Answer: Its IC50 is 0.047 µM.

Question: How did the IC50 turn out when `COc1cc(/C=C2\CC[C@@H]3CCC[C@@H](c4ccc(F)c(F)c4)N3C2=O)ccc1-n1cnc(C)c1` [Example 65, (E)-(6S,9aS)-6-(3,4-difluorophenyl)-3-[3-methoxy-4-(4-methyl-1H-imidazol-1-yl)benzylidene]octahydroquinolizin-4-one] was run?
Answer: The IC50 was 0.068 µM.

Question: With `COc1cc(/C=C2\CC[C@@H]3CC(C)=C[C@@H](c4ccc(F)cc4)N3C2=O)ccc1-n1cnc(C)c1` [Example 49, (E)-(6S,9aR)-6-(4-fluorophenyl)-3-[3-methoxy-4-(4-methyl-1H-imidazol-1-yl)benzylidene]-8-methyl-1,2,3,6,9,9a-hexahydroquinolizin-4-one] as the compound, how does the IC50 read?
Answer: The IC50 was 0.21 µM.

Question: Which IC50 does the source give for `COc1cc(/C=C2\CC[C@H]3CCC[C@@H](c4ccc(Cl)cc4)N3C2=O)ccc1-n1cnc(C)c1` [Example 92, (6S,9aR)-6-(4-chlorophenyl)-3-{1-[3-methoxy-4-(4-methyl-1H-imidazol-1-yl)phenyl]-(E)-methylidene}octahydroquinolizin-4-one] here?
Answer: The IC50 was 0.04 µM.
